Where “and” joins values, the source holds several entries; their conditions need not be identical. Equal values may be shown once. Inconclusive results and toxic doses are left out. No stated cut-off is given here; in the data, active means T/C of 150% or more; inactive means T/C below 125%.
System: L1210 leukemia ip in BDF1 mice, survival T/C
Experiment: NCI In Vivo Anticancer Drug Screen. Data for tumor model L1210 Leukemia (intraperitoneal) in B6D2F1 (BDF1) mice
Details: endpoint: mean survival time, higher = longer survival
Procedure, shortened: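 Survival endpoint. Drug-treated group vs vehicle group, expressed as T divided by C. Tumor passaged by transplantation.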

[1] = dose: 50.0 mg/kg/injection, schedule: Q01DX009 (ip), vehicle: Klucel (hydroxypropylcellulose) (HPC)
[2] = dose: 100.0 mg/kg/injection, schedule: Q01DX009 (ip), vehicle: Klucel (hydroxypropylcellulose) (HPC)
[3] = dose: 100.0 mg/kg/injection, schedule: Q04DX003 (ip), vehicle: saline with Tween-80
[4] = dose: 200.0 mg/kg/injection, schedule: Q04DX003 (ip), vehicle: saline with Tween-80
[5] = dose: 100.0 mg/kg/injection, schedule: Q04DX002 (ip), vehicle: Klucel (hydroxypropylcellulose) (HPC)
[6] = dose: 200.0 mg/kg/injection, schedule: Q04DX002 (ip), vehicle: Klucel (hydroxypropylcellulose) (HPC)
[7] = dose: 400.0 mg/kg/injection, schedule: Q04DX002 (ip), vehicle: Klucel (hydroxypropylcellulose) (HPC)
[8] = dose: 100.0 mg/kg/injection, schedule: Q01DX001 (ip), vehicle: saline with Tween-80
[9] = dose: 200.0 mg/kg/injection, schedule: Q01DX001 (ip), vehicle: saline with Tween-80
[10] = dose: 400.0 mg/kg/injection, schedule: Q01DX001 (ip), vehicle: saline with Tween-80
[11] = dose: 400.0 mg/kg/injection, schedule: Q04DX003 (ip), vehicle: saline with Tween-80
[12] = dose: 100.0 mg/kg/injection, schedule: Q04DX003 (ip), vehicle: Klucel (hydroxypropylcellulose) (HPC)
[13] = dose: 200.0 mg/kg/injection, schedule: Q04DX003 (ip), vehicle: Klucel (hydroxypropylcellulose) (HPC)
[14] = dose: 200.0 mg/kg/injection, schedule: Q01DX009 (ip), vehicle: Klucel (hydroxypropylcellulose) (HPC)
[15] = dose: 400.0 mg/kg/injection, schedule: Q01DX009 (ip), vehicle: Klucel (hydroxypropylcellulose) (HPC)
[16] = dose: 10.0 mg/kg/injection, schedule: Q01DX001 (ip), vehicle: saline

Measured: T/C

O=[N+]([O-])c1ccc([N+](=O)[O-])c(Cl)c1
inactive: [1] 101 % of control | [2] 95 % of control | [3] 97 % of control | [4] 86 % of control

c1ccc2c(CCCCc3nccc4ccccc34)nccc2c1
inactive: [5] 102 % of control | [6] 97 % of control | [7] 89 % of control

CCN(C=O)c1ccc(NC=O)cc1
inactive: dose: 50.0 mg/kg/injection, schedule: Q01DX001 (ip), vehicle: saline with Tween-80 104 % of control | [8] 94 % of control and 100 % of control | dose: 100.0 mg/kg/injection, schedule: Q04DX002 (ip), vehicle: saline with Tween-80 103 % of control | [3] 97 % of control | [9] 94 % of control and 91 % of control | dose: 200.0 mg/kg/injection, schedule: Q04DX002 (ip), vehicle: saline with Tween-80 97 % of control | [4] 95 % of control and 91 % of control | [10] 94 % of control | dose: 400.0 mg/kg/injection, schedule: Q04DX002 (ip), vehicle: saline with Tween-80 101 % of control | [11] 103 % of control and 108 % of control

Cc1ccc(C(=O)NO)cc1
inactive: dose: 100.0 mg/kg/injection, schedule: Q04DX003 (ip), vehicle: carboxymethylcellulose (CMC) 98 % of control | dose: 200.0 mg/kg/injection, schedule: Q04DX003 (ip), vehicle: carboxymethylcellulose (CMC) 90 % of control | dose: 400.0 mg/kg/injection, schedule: Q04DX003 (ip), vehicle: carboxymethylcellulose (CMC) 98 % of control

Cc1ccc(S(=O)(=O)Nc2ccc(Cl)c(Cl)c2)cc1
inactive: [12] 97 % of control | [13] 96 % of control | dose: 400.0 mg/kg/injection, schedule: Q04DX003 (ip), vehicle: Klucel (hydroxypropylcellulose) (HPC) 94 % of control

O=C1NC2(CCC(O)CC2)C(O)(c2ccccc2)C12CCCCC2 (stereo not given)
inactive: dose: 75.0 mg/kg/injection, schedule: Q01DX001 (ip), vehicle: saline 105 % of control | dose: 150.0 mg/kg/injection, schedule: Q01DX001 (ip), vehicle: saline 86 % of control | dose: 300.0 mg/kg/injection, schedule: Q01DX001 (ip), vehicle: saline 86 % of control

Cc1cnc2c(=O)[nH]c(N)nc2n1
inactive: dose: 25.0 mg/kg/injection, schedule: Q04DX002 (ip), vehicle: Klucel (hydroxypropylcellulose) (HPC) 97 % of control | dose: 50.0 mg/kg/injection, schedule: Q04DX002 (ip), vehicle: Klucel (hydroxypropylcellulose) (HPC) 113 % of control | [5] 100 % of control

COC(=O)C1ON(C(=O)c2ccccc2)C(C)C(O)C1OC=O (stereo not given)
inactive: [5] 95 % of control | [6] 95 % of control | [7] 103 % of control

CCOC(=O)C(CC(=O)O)C(c1ccccc1)c1ccccc1 (stereo not given)
inactive: dose: 100.0 mg/kg/injection, schedule: Q01DX001 (ip), vehicle: Klucel (hydroxypropylcellulose) (HPC) 99 % of control | [2] 105 % of control and 106 % of control | [5] 98 % of control and 103 % of control | dose: 200.0 mg/kg/injection, schedule: Q01DX001 (ip), vehicle: Klucel (hydroxypropylcellulose) (HPC) 94 % of control | [14] 103 % of control and 105 % of control | [6] 98 % of control and 100 % of control | dose: 400.0 mg/kg/injection, schedule: Q01DX001 (ip), vehicle: Klucel (hydroxypropylcellulose) (HPC) 99 % of control | [15] 98 % of control and 118 % of control | [7] 98 % of control and 103 % of control

NC(=O)C(O)(C(F)(F)F)C(F)(F)F
inactive: dose: 1.25 mg/kg/injection, schedule: Q01DX009 (ip), vehicle: saline 97 % of control | dose: 2.5 mg/kg/injection, schedule: Q01DX009 (ip), vehicle: saline 111 % of control | dose: 5.0 mg/kg/injection, schedule: Q01DX009 (ip), vehicle: saline 95 % of control | dose: 5.0 mg/kg/injection, schedule: Q04DX003 (ip), vehicle: saline 97 % of control | [16] 102 % of control | dose: 10.0 mg/kg/injection, schedule: Q04DX003 (ip), vehicle: saline 100 % of control | dose: 20.0 mg/kg/injection, schedule: Q01DX001 (ip), vehicle: saline 94 % of control

Nc1cccc(OCCCOc2cccc([N+](=O)[O-])c2)c1
inactive: [1] 106 % of control | [2] 90 % of control | [14] 90 % of control

ClCCCOC1CCCCO1 (stereo not given)
inactive: [12] 89 % of control | [3] 107 % of control | [13] 95 % of control | [4] 96 % of control | [11] 96 % of control

COc1cc(C=Nc2cccc(C(F)(F)F)c2)ccc1OC(=O)c1ccccc1
inactive: [2] 86 % of control | [14] 94 % of control | [15] 91 % of control

COc1cc(Cc2c(C=O)[nH]c(=S)[nH]c2=O)cc(OC)c1OC
inactive: [8] 90 % of control | [9] 89 % of control | [10] 96 % of control

COC1=CC23CCNC(Cc4ccc(OC)c(O)c42)C3=CC1 (stereo not given)
inactive: [16] 101 % of control

Cc1ccc(S(=O)(=O)N2CC(O)C(O)C2CO)cc1 (stereo not given)
inactive: dose: 50.0 mg/kg/injection, schedule: Q01DX005 (ip), vehicle: saline 96 % of control | dose: 100.0 mg/kg/injection, schedule: Q01DX005 (ip), vehicle: saline 104 % of control | dose: 200.0 mg/kg/injection, schedule: Q01DX005 (ip), vehicle: saline 102 % of control

Cc1ccc([I+]c2ccc(C)c(C)c2)cc1C
inactive: dose: 1.0 mg/kg/injection, schedule: Q01DX001 (ip), vehicle: acetone 102 % of control | dose: 2.0 mg/kg/injection, schedule: Q01DX001 (ip), vehicle: acetone 98 % of control | dose: 4.0 mg/kg/injection, schedule: Q01DX001 (ip), vehicle: acetone 105 % of control | dose: 5.9 mg/kg/injection, schedule: Q01DX001 (ip), vehicle: saline 103 % of control | dose: 9.0 mg/kg/injection, schedule: Q01DX001 (ip), vehicle: saline 97 % of control | dose: 13.0 mg/kg/injection, schedule: Q01DX001 (ip), vehicle: saline 100 % of control | dose: 19.0 mg/kg/injection, schedule: Q01DX001 (ip), vehicle: saline 102 % of control | dose: 29.0 mg/kg/injection, schedule: Q01DX001 (ip), vehicle: saline 101 % of control | dose: 45.0 mg/kg/injection, schedule: Q01DX001 (ip), vehicle: saline 98 % of control | dose: 65.0 mg/kg/injection, schedule: Q01DX001 (ip), vehicle: saline with Tween-80 96 % of control | [8] 97 % of control | dose: 150.0 mg/kg/injection, schedule: Q01DX001 (ip), vehicle: saline with Tween-80 94 % of control | dose: 225.0 mg/kg/injection, schedule: Q01DX001 (ip), vehicle: saline with Tween-80 102 % of control | dose: 340.0 mg/kg/injection, schedule: Q01DX001 (ip), vehicle: saline with Tween-80 96 % of control

Reference: PubChem BioAssay AID248 (DTP/NCI, 2004)
